Assay results as given in the NIST ThermoML archive (doi:10.1016/j.jct.2012.07.022).

Experiment: wn = mass fraction of the nth substance listed
Conditions: 101 kPa, Liquid; for electrical conductivity: Alternating current cell with electrodes; for viscosity: Capillary tube (Ostwald / Ubbelohde) method; for mass density: Vibrating tube method

Nc1[nH]cnc2ncnc1-2 [6-amino-1H-purine] + CC(=O)[O-].CCn1cc[n+](C)c1
Conditions	electrical conductivity [S/m]	mass density [kg/m3]	viscosity [mPa·s]
298.15 K, w2 = 0	0.296	1097.6	128.5
298.15 K, w2 = 0.0482	0.209	1111.1	197.7
298.15 K, w2 = 0.1008	0.143	1124.3	318
298.15 K, w2 = 0.1514	0.0996	1135	498.1
298.15 K, w2 = 0.2055	0.0672	1146.4	823.2
298.15 K, w2 = 0.2481	0.0471	1154.5	1235.7
303.15 K, w2 = 0	0.382	1094.5	95.23
303.15 K, w2 = 0.0482	0.278	1107.9	141
303.15 K, w2 = 0.1008	0.197	1121.1	218
303.15 K, w2 = 0.1514	0.142	1131.7	328.1
303.15 K, w2 = 0.2055	0.0995	1143	517.9
303.15 K, w2 = 0.2481	0.0718	1151.2	748.9
308.15 K, w2 = 0	0.48	1091.4	72.42
308.15 K, w2 = 0.0482	0.362	1104.9	103.7
308.15 K, w2 = 0.1008	0.264	1118	154.8
308.15 K, w2 = 0.1514	0.196	1128.6	224.7
308.15 K, w2 = 0.2055	0.142	1139.8	341.2
308.15 K, w2 = 0.2481	0.105	1147.9	477.5
313.15 K, w2 = 0	0.594	1088.4	56.38
313.15 K, w2 = 0.0482	0.459	1101.9	78.37
313.15 K, w2 = 0.1008	0.346	1114.9	113.4
313.15 K, w2 = 0.1514	0.262	1125.5	159.6
313.15 K, w2 = 0.2055	0.194	1136.6	233.9
313.15 K, w2 = 0.2481	0.148	1144.7	318.1
318.15 K, w2 = 0	0.827	1085.3	44.79
318.15 K, w2 = 0.0482	0.571	1098.8	60.64
318.15 K, w2 = 0.1008	0.439	1111.9	85.36
318.15 K, w2 = 0.1514	0.34	1122.4	116.8
318.15 K, w2 = 0.2055	0.259	1133.5	166
318.15 K, w2 = 0.2481	0.202	1141.6	220.1
323.15 K, w2 = 0	0.986	1082.3	36.23
323.15 K, w2 = 0.0482	0.695	1095.8	47.91
323.15 K, w2 = 0.1008	0.546	1108.9	65.78
323.15 K, w2 = 0.1514	0.431	1119.4	87.9
323.15 K, w2 = 0.2055	0.336	1130.4	121.4
323.15 K, w2 = 0.2481	0.267	1138.5	157.4
328.15 K, w2 = 0	–	1079.3	29.78
328.15 K, w2 = 0.0482	–	1092.9	38.55
328.15 K, w2 = 0.1008	–	1105.9	51.75
328.15 K, w2 = 0.1514	–	1116.4	67.64
328.15 K, w2 = 0.2055	–	1127.5	91.14
328.15 K, w2 = 0.2481	–	1135.4	115.9
333.15 K, w2 = 0	–	1076.2	24.82
333.15 K, w2 = 0.0482	–	1089.9	31.51
333.15 K, w2 = 0.1008	–	1102.9	41.48
333.15 K, w2 = 0.1514	–	1113.4	53.16
333.15 K, w2 = 0.2055	–	1124.5	70.05
333.15 K, w2 = 0.2481	–	1132.5	87.5
338.15 K, w2 = 0	–	1073.3	20.95
338.15 K, w2 = 0.0482	–	1086.9	26.14
338.15 K, w2 = 0.1008	–	1099.9	33.78
338.15 K, w2 = 0.1514	–	1110.4	42.55
338.15 K, w2 = 0.2055	–	1121.5	54.95
338.15 K, w2 = 0.2481	–	1129.5	67.57
343.15 K, w2 = 0	–	1070.3	17.88
343.15 K, w2 = 0.0482	–	1083.9	21.96
343.15 K, w2 = 0.1008	–	1096.9	27.91
343.15 K, w2 = 0.1514	–	1107.4	34.61
343.15 K, w2 = 0.2055	–	1118.5	43.91
343.15 K, w2 = 0.2481	–	1126.4	53.21

O=c1cc[nH]c(=O)[nH]1 [2,4(1H,3H)-pyrimidinedione] + CC(=O)[O-].CCn1cc[n+](C)c1
Conditions	electrical conductivity [S/m]	mass density [kg/m3]	viscosity [mPa·s]
298.15 K, w2 = 0	0.296	1097.6	128.5
298.15 K, w2 = 0.0486	0.221	1111	190.6
298.15 K, w2 = 0.1019	0.159	1125	294
298.15 K, w2 = 0.1471	0.11	1135.7	437.6
298.15 K, w2 = 0.2029	0.0807	1148.6	682.8
298.15 K, w2 = 0.2505	0.0585	1157.9	1010
298.15 K, w2 = 0.298	0.0388	1166.8	1589
303.15 K, w2 = 0	0.382	1094.5	95.23
303.15 K, w2 = 0.0486	0.293	1107.9	136.6
303.15 K, w2 = 0.1019	0.214	1122	204
303.15 K, w2 = 0.1471	0.156	1132.5	293.1
303.15 K, w2 = 0.2029	0.117	1145.2	441.4
303.15 K, w2 = 0.2505	0.0878	1154.6	630.8
303.15 K, w2 = 0.298	0.0602	1163.7	952.6
308.15 K, w2 = 0	0.48	1091.4	72.42
308.15 K, w2 = 0.0486	0.38	1104.9	100.9
308.15 K, w2 = 0.1019	0.288	1118.9	146.4
308.15 K, w2 = 0.1471	0.212	1129.3	204.2
308.15 K, w2 = 0.2029	0.163	1141.9	297.8
308.15 K, w2 = 0.2505	0.125	1151.2	413.1
308.15 K, w2 = 0.298	0.0892	1160.5	602.2
313.15 K, w2 = 0	0.594	1088.4	56.38
313.15 K, w2 = 0.0486	0.48	1101.8	76.6
313.15 K, w2 = 0.1019	0.372	1115.8	108.2
313.15 K, w2 = 0.1471	0.281	1126.2	147.1
313.15 K, w2 = 0.2029	0.221	1138.8	208.6
313.15 K, w2 = 0.2505	0.173	1148	281.8
313.15 K, w2 = 0.298	0.127	1157.1	398.2
318.15 K, w2 = 0	0.827	1085.3	44.79
318.15 K, w2 = 0.0486	0.592	1098.8	59.5
318.15 K, w2 = 0.1019	0.469	1112.8	82.2
318.15 K, w2 = 0.1471	0.362	1123.2	109.1
318.15 K, w2 = 0.2029	0.29	1135.7	150.9
318.15 K, w2 = 0.2505	0.233	1144.8	199.2
318.15 K, w2 = 0.298	0.176	1153.9	273.8
323.15 K, w2 = 0	0.986	1082.3	36.23
323.15 K, w2 = 0.0486	0.718	1095.8	47.16
323.15 K, w2 = 0.1019	0.579	1109.9	63.79
323.15 K, w2 = 0.1471	0.456	1120.2	82.98
323.15 K, w2 = 0.2029	0.371	1132.7	112.2
323.15 K, w2 = 0.2505	0.304	1141.7	145.2
323.15 K, w2 = 0.298	0.233	1150.8	194.8
328.15 K, w2 = 0	–	1079.3	29.78
328.15 K, w2 = 0.0486	–	1092.9	38.06
328.15 K, w2 = 0.1019	–	1106.9	50.53
328.15 K, w2 = 0.1471	–	1117.1	64.55
328.15 K, w2 = 0.2029	–	1129.6	85.56
328.15 K, w2 = 0.2505	–	1138.7	108.7
328.15 K, w2 = 0.298	–	1147.8	142.7
333.15 K, w2 = 0	–	1076.2	24.82
333.15 K, w2 = 0.0486	–	1089.9	31.2
333.15 K, w2 = 0.1019	–	1103.9	40.73
333.15 K, w2 = 0.1471	–	1114.1	51.22
333.15 K, w2 = 0.2029	–	1126.6	66.66
333.15 K, w2 = 0.2505	–	1135.7	83.31
333.15 K, w2 = 0.298	–	1144.7	107.3
338.15 K, w2 = 0	–	1073.3	20.95
338.15 K, w2 = 0.0486	–	1086.9	25.94
338.15 K, w2 = 0.1019	–	1100.9	33.34
338.15 K, w2 = 0.1471	–	1111.1	41.34
338.15 K, w2 = 0.2029	–	1123.6	52.92
338.15 K, w2 = 0.2505	–	1132.7	65.2
338.15 K, w2 = 0.298	–	1141.7	82.59
343.15 K, w2 = 0	–	1070.3	17.88
343.15 K, w2 = 0.0486	–	1083.9	21.84
343.15 K, w2 = 0.1019	–	1097.9	27.67
343.15 K, w2 = 0.1471	–	1108.1	33.87
343.15 K, w2 = 0.2029	–	1120.5	42.75
343.15 K, w2 = 0.2505	–	1129.6	51.97
343.15 K, w2 = 0.298	–	1138.7	64.84
